Assay results published in patent publication US20250043349A1, “DEORPHANIZING ODORS USING SINGLE CELL SEQUENCING” (PRESIDENT AND FELLOWS OF HARVARD COLLEGE, priority 2021, published 2025).

Assays:
[1] = tested on: OSN subtypes (odorant receptors, ORs); test: Act-Seq: scSeq of olfactory epithelium after two-hour odor exposure (IEG expression, activated ORs, activation score); format: in vivo, mouse
Procedure: Act-Seq (Wu et al., 2017) was performed following odor exposure to quantify odor-evoked responses in each OSN subtype (defined by their expressed OR) across the entire OR repertoire. Mice were habituated to a reversed light cycle for at least for 1 week before odor exposure, transferred to a new disposable cage with regular bedding/food and kept overnight in a satellite animal facility. On the experimental day, each mouse was first transferred to a new empty disposable cage during the dark cycle and habituated for 20 minutes. Empty cages were used to avoid any activation by odorants present within the environments in which the mice were housed. Odors were added to a piece of filter paper (100 μL of odorant) in a 35 mm petri dish and a cotton ball (200 μL of odorant) and placed in each cage. After 2 hours, mice were euthanized, and dissociation was performed as described below. Odors used in this study were as follows. Dipropylene glycol (DPG, control solvent), and 10% of acetophenone, octanal, 2-hydroxy acetophenone, 4-methyl acetophenone, and methyl salicylate. As a control, mice were exposed to DPG alone for 30 min. This control condition was used to account for any drift in transcriptomes during the overnight housing and habituation periods prior to odor exposure and designed to capture the transcriptome in the state it would have been in the odor-exposed animals prior to odor exposure. […] Act-Seq was also performed using lower concentrations of acetophenone (1.0, 0.1, 0.01%) and 2-hydroxy acetophenone (0.1%, 0.01%). All odor dilutions were made with DPG, and all odors and DPG were obtained from Sigma. To assess the persistence of any transcriptional changes observed as a result of odor exposure, a cohort of mice was exposed to acetophenone or DPG for 2 hours, transferred to new clean regular home cages, and subjected to scSeq after an additional 22 hours.
The main olfactory epithelium was dissected in Earle's Balanced Salt Solution (EBSS, pre-treated with carbogen for at least 5 minutes before each use, Worthington), then transferred to a round-bottomed glass dish containing 750 μL of papain solution (one vial of Papain (Worthington) dissolved in 5 mL of EBSS and then equilibrated 10 minutes at 37° C.) and 100 μL of DNase solution (one vial of DNase-I (Worthington) dissolved in 500 μL of EBSS). Bone was removed from the epithelium under a dissecting microscope and the resulting epithelial tissue was placed in a 5 mL tube (Becton Dickinson) with an additional 1.75 mL of Papain solution and 200 μL of DNase-I solution and rocked gently for-60 minutes at 37° C. The tissue was then gently triturated with a 5 mL pipette 10-15 times, passed through a 40 μm cell strainer (Becton Dickinson), and washed with 1 mL of Hibernate-A medium containing 10% Fetal Bovine Serum (FBS. GIBCO). Filtered cells were transferred to a new 5 mL tube and centrifuged 5 minutes at 300×g. The supernatant was decanted, the cells were washed once with 4 mL Hibernate-A containing 10% FBS and resuspended in 1 mL Hibernate-A containing 0.2% FBS. Importantly, each of the solutions above contained transcriptional inhibitors (5 μg/mL of Actinomycin D, 10 μg/mL of Anisomycin and 10 μM of Triptolide, all obtained from Sigma) for all experiments, especially the Act-Seq experiments, except where noted.
OSN subtypes that were responsive to odorants were identified via a two-step process. First, individual OSNs (as defined by the expressed OR) were determined as activated based on their mean z-scored immediate early genes (IEG) expression. A set of 10 IEGs were used (Btg2, Egr1, Fos, Fosb, Gm13889, Junb, Nr4a1, Nr4a2, Pcdh10, and Srxn1). […] The set of 10 IEGs was used since even though all of the IEGs were specific to acute activation by odors, they were still only detected in a minority of cells due to the sparse nature of scSeq. […]

OSN subtypes = test: Persistence of transcriptional changes: 2 h odor exposure, 22 h home cage, scSeq ES scores; format: in vivo, mouse; conditions: two-hour exposure, measured after 24 hours
Procedure: Act-Seq (Wu et al., 2017) was performed following odor exposure to quantify odor-evoked responses in each OSN subtype (defined by their expressed OR) across the entire OR repertoire. Mice were habituated to a reversed light cycle for at least for 1 week before odor exposure, transferred to a new disposable cage with regular bedding/food and kept overnight in a satellite animal facility. On the experimental day, each mouse was first transferred to a new empty disposable cage during the dark cycle and habituated for 20 minutes. Empty cages were used to avoid any activation by odorants present within the environments in which the mice were housed. Odors were added to a piece of filter paper (100 μL of odorant) in a 35 mm petri dish and a cotton ball (200 μL of odorant) and placed in each cage. After 2 hours, mice were euthanized, and dissociation was performed as described below. Odors used in this study were as follows. […]
Changes in ES scores were evaluated by comparing the ES scores for each OSN subtype across experimental conditions. […] The changes in ES scores and z-scored functional gene expression across conditions for each OSN subtype are described. The relative ES score change for each OSN subtype was calculated by subtracting the mean across all OSN subtypes, to normalize for any global changes across conditions that were present across the population of OSNs.

[2] = acetophenone concentration series 0.01-10%

activation scores of acetophenone-responsive OSNs with increasing concentrations [1, 2]: tonically increased
number of ORs activated with increasing concentrations [1, 2]: tonically increased
z-scored expression of 10 immediate early genes (IEGs) for each OSN subtype, odor vs control ([1]; odor vs control (DPG) conditions): higher in the odor conditions
SMILES: CC(=O)c1ccccc1 [acetophenone]
percent of cells activated per OR on average, 5 partially activated ORs identified only by phospho-S6 ([1]; Act-Seq, ORs identified as acetophenone receptors): 43.8%
overlap between ORs activated by ACE and OCT, odds ratio ([1]; Fisher's exact test, overlap at chance levels): 1.42
ES scores after transient exposure (OSN subtypes): did not change ES scores after 24 hours
